Test results taken from patent US20080206149A1, “METHOD, DYE AND MEDICAMENT FOR STAINING THE INTERNAL LIMITING MEMBRANE, EPIRETINAL MEMBRANE, THE VITREOUS AND/OR THE CAPSULE OF AN EYE” (LUDWIG-MAXIMILIANS-UNIVERSITAT MUNCHEN, priority 2005, published 2008).
“Also recorded” adds a separate entry of the source.

Columns and labels:
[1] = Light absorbing properties (UV/VIS/NIR spectrometer); type: physicochemical; settings: measured up to a content of 0.05% dye
Method: Light absorption was measured in 0.05% solutions, with BSS plus as a solvent medium. Light absorption was measured instantly after preparation of a stock solution of the dye using a UV/VIS/NIR Spectrometer (Lambda 900, Perkin Elmer) between 200 and 1000 nm.

vitreous [2] = assay: Staining of the vitreous during vitrectomy in humans using BPB (Example 1); type: in vivo; settings: 0.2%
Method: All patients (n=9) gave their written informed consent before surgery. […] A standard three port pars plana vitrectomy was performed. First, the transparent vitreous was removed as thoroughly as possible using the vitrectomy probe. Then fluid air exchange was performed and a few drops of the dye (BPB, 0.2%) were injected. After one minute, the dye was washed out by irrigation.

[3] = tested on: vitreous and posterior hyaloid; assay: Vitrectomy for idiopathic macular hole (Example 3); type: in vivo, humans
From the text: (§1) This study was approved by the local ethics committee and Institutional Review Board (IRB) and written informed consent was obtained from all patients. Six consecutive patients with idiopathic macular hole, 3 males and 3 females with a mean age of 68 were included. Holes were graded as stage 2 (n=3), stage 3 (n=2) and stage 4 (n=1). The dye was also used in four patients with retinal detachments, 2 females and 2 males with a mean age of 57 years.
(§2) Pre- and postoperatively, all patients underwent a complete clinical examination including measurement of best corrected visual acuity (VA), slit lamp examination, tonometry, and funduscopy using a 78 diopter lens (Volk Optical, Mentor, Ohio, USA). In macular hole patients, we additionally performed optical coherence tomography (OCT) (Stratus-OCT, Carl Zeiss Meditec, Jena, Germany), Goldmann perimetry, multifocal electroretinogram (ERG) and fundus photographs. Patients were seen one day before surgery and then in six weeks intervals. Postoperatively, ERG and Goldmann perimetry were performed at the six weeks follow-up visit and were not repeated if unremarkable.
Bromphenol blue powder was dissolved and diluted using BSS plus and sterilized using a 0.22 μm syringe filter. A final dye concentration of 0.2% was then injected into the eye. Vitrectomy first consisted of a core vitrectomy, followed by vitreous removal in the periphery in the area of the sclerotomy sites by indentation of the globe using a squint hook. Then an attempt was made to induce a posterior vitreous detachment by applying suction at the optic nerve head.
The dye was applied as follows: During pars plana vitrectomy for a macular hole a fluid air-exchange was performed prior to dye injection to achieve a maximum dye concentration on the retinal surface. Then, a few drops of the dye were injected over the posterior pole and the globe was gently moved to allow for an adequate dye distribution (FIG. 8A). This was followed by removal of excessive dye by irrigation after one minute. Then epiretinal tissue was removed if present and an attempt to peel the ILM using an end-gripping forceps was made in selected cases. Surgery was completed by fluid-air exchange and intraocular gas tamponade (hexafluoroethane (C2F6)) as previously described (Haritoglou C., Gandorfer A., Gass C. A., et al., “Indocyanine green-assisted peeling of the internal limiting membrane in macular hole surgery affects visual outcome: a clinicopathologic correlation”, Am J. Ophthalmol 2002; 134: 836-41). During surgery for retinal detachment the dye was applied after induction of a PVD and injection of approximately 1.5 ml heavy liquid (PFCL, perfluorocarbon, Fluoron GmbH, Neu-Ulm, Germany) and fluid-air exchange without removing PFCL (FIG. 8B). Using this approach, we obtained not only a higher dye concentration in the anterior segment of the eye as the dye can not be further diluted by PFCL, but we could also prevent an uncontrolled distribution especially in the subretinal space and excessive contact with the lens capsule, which may result in an unwanted staining effect. In addition we obtained a staining of the vitreous in the periphery as intended. C2F6 was used as an intraocular tamponade at the end of surgery. The staining characteristics were then evaluated by the surgeon.

vitreous [4] = assay: Vitrectomy for retinal detachment (Example 3); type: in vivo, humans
From the text: as §1
as §2, with “unremarkable. […]” for “unremarkable.”
The dye was applied as follows: During pars plana vitrectomy for a macular hole a fluid air-exchange was performed prior to dye injection to achieve a maximum dye concentration on the retinal surface. […] The staining characteristics were then evaluated by the surgeon.

[5] = tested on: epiretinal membranes, ILM and vitreous; assay: Vitreoretinal surgery for macular pucker (Example 4); type: in vivo, human; settings: for staining effect of ERM: washed out after one minute
From the text: The study was approved by the local ethics committee and Institutional Review Board, and written informed consent was obtained from all patients. Thirteen patients with macular pucker, seven males and six females with a mean age of 65, were included in the present study.
Preoperatively and postoperatively, patients underwent a complete clinical examination including measurement of best corrected visual acuity (VA), slit-lamp examination, tonometry, funduscopy using a 78 diopter lens (Volk Optical, Mentor, Ohio, USA), fluorescein angiography, OCT (Stratus), Goldmann perimetry, multifocal ERG and fundus photograph. Patients were seen one day before surgery and then in six-week intervals. Postoperatively, ERG and Goldmann perimetry were performed at the six-week follow-up visit and were not repeated if unremarkable.
Bromphenol blue was dissolved and diluted using BSS plus and sterilised using a 0.22 μm syringe filter and dye concentrations of 0.2% were then injected into the eye.
Vitrectomy consisted of a standard three-port pars plana vitrectomy as described in previous reports (Haritoglou C., Gandorfer A., Gass C. A., et al., “Indocyanine green-assisted peeling of the internal limiting membrane in macular hole surgery affects visual outcome: a clinicopathologic correlation”, Am J. Ophthalmol 2002; 134:836-41; Haritoglou C., Gandorfer A., Gass C. A., et al.: “The effect of indocyanine-green on functional outcome of macular pucker surgery, Am J. Ophthalmol 2003; 135:328-37). Before injection of the dye, a fluid air-exchange was performed to avoid an uncontrolled dye distribution. Then, a few drops of the dye were applied over the macular area. After a period of one minute, the dye was completely washed out by irrigation. The staining characteristics were then evaluated by the surgeon and an additional examiner (CH). This was followed by removal of epiretinal tissue and the ILM using an end-gripping forceps. After the removal of epiretinal tissue, no second dye injection was performed in this series of patients.
All epiretinal tissue removed during surgery was harvested and immediately prepared for ultrastructural analysis. Ultrathin sections were obtained from all specimens, contrasted with uranyl acetate and lead citrate, and analysed using a Zeiss EM 9 electron microscope (Zeiss Jena, Germany).

anterior lens capsule = settings: previous experimental studies; cited from earlier work
[6] = 0.2%, listed as Bromphenol blue
[7] = 0.2%, listed as bromphenol blue

For O=S1(=O)OC(c2cc(Br)c(O)c(Br)c2)(c2cc(Br)c(O)c(Br)c2)c2ccccc21 [Bromophenol blue, Bromophenole blue], the “position of the long wavelength maximum, influence of dye concentration” value [1] was “not influenced by the dye concentration”, the “complications of complete removal of the vitreous” value (vitreous [2]; humans) was “without complications” and the “staining of vitreous remnants adherent to the retinal surface” value (vitreous [2]; washed out after one minute, patients with macular pucker or macular hole) was “bluish staining”. The “staining of remnant vitreous in the periphery at the vitreous base” value ([3]; 0.2%, macular hole surgery) was “could be seen in all cases”, the “staining of the retinal surface or the ILM” value ([3]; 0.2%, three cases with complete PVD and no epiretinal membrane) was “no staining of the retinal surface or the ILM” and the “amplitudes in postoperative ERG examinations” value ([3]; in vivo) was “no affection of the amplitudes”. The “loss of VA” value ([3]; in vivo) was “No loss of VA”, the “peripheral visual field defects indicating dye related toxicity” value ([3]; in vivo) was “nor did we observe peripheral visual field defects” and the “staining of the adherent posterior hyaloid membrane” value ([3]; macular hole patients with incomplete PVD) was “very useful”. The VA postoperatively ([3]; overall patients) was 20/40, the VA preoperatively ([3]; overall patients) was 20/100 and the macular hole closure ([3]; second operation necessary in one case) was “All macular holes could be closed successfully”. For the same compound, the “identification of peripheral vitreous remnants at the vitreous base and retinal breaks” value (vitreous [4]; 0.2%, injected onto PFCL bubble) was “helped to identify peripheral remnants of vitreous”, the “reattachment of the retina” value (vitreous [4]; in vivo) was “could be achieved in all cases” and the “staining of the ILM” value ([5]; 0.2%, patients with ERM) was “did not observe sufficient staining of the ILM”. For the same compound, the “staining effect of ERM” value [5, 6] was “varied depending on the thickness of the ERM”, the “staining effect of ERM” value [5, 7] was “good staining properties” and the “staining of remnant vitreous at the vitreous base” value [5, 6] was “could he seen in all cases; also recorded: strong staining”. For the same compound, the “staining of remnant vitreous at the vitreous base” value [5, 7] was “good staining properties”, the “histology: cellular integrity of epiretinal cells” value ([5]; epiretinal membranes of 8 patients, electron microscopy) was “maintained their cellular integrity” and the “amplitudes in postoperative ERG examinations” value ([5]; in vivo) was “no affection of the amplitudes”. For the same compound, the “dye-related complications in any functional test performed” value ([5]; in vivo) was “No dye-related complications”, the “loss of VA” value ([5]; in vivo) was “No loss of VA” and the “peripheral visual field defects attributable to the dye” value ([5]; in vivo) was “nor did we observe peripheral visual field defects”. The “safety profile intraoperatively and during follow-up” value ([5]; in vivo) was “very good safety profile”, the VA postoperatively ([5]; overall patients) was 0.32 and the VA preoperatively ([5]; overall patients) was 0.16. The “safety for intraocular application” value (anterior lens capsule) was “safe for intraocular application” and the “staining of the anterior lens capsule” value (anterior lens capsule) was “strongly stain”.
